Read-outs that look alike come from different tables or passages of the source.
Tests used:
Cofilin:LIMK2 = assay: Protein-fragment complementation assay Cofilin:LIMK2; format: cell-based, human; conditions: hit in Cofilin/LIMK2 assay; drugs screened at 10 micromolar
Description: (§1) To construct dynamic assays for protein-protein complexes, we used a protein-fragment complementation assay strategy (PCAs) in intact human cells. (A variety of other suitable assays, and reporter options, are described in detail below.) The principle of PCA is that complementary polypeptide fragments (F[1] and F[2]) of a reporter protein or enzyme will fold into an active form only if fused to two proteins which interact and bring the complementary fragments of the reporter protein into proximity. Reconstitution of the fragments of the reporter protein generates a fluorescent signal that can be quantified in intact cells, and the amount of the signal is proportional to the amount of the protein-protein complex used in constructing the assay. Given a suitable reporter type, the subcellular location of the complex can also be measured.
(§2) Reporter fragments for PCA were generated by oligonucleotide synthesis (Blue Heron Biotechnology, Bothell, Wash.), starting with the sequence of yellow fluorescent protein (YFP). First, oligonucleotides coding for polypeptide fragments YFP[1]and YFP[2] […] Next, PCR mutagenesis was used to generate the mutant fragments IFP[1] and IFP[2]. The IFP[1] fragment corresponds to YFP[1]-(F46L, F64L, M153T) and the IFP[2] fragment corresponds to YFP[2]-(V163A, S175G). […]

PAK4:Cofilin = assay: Protein-fragment complementation assay PAK4:Cofilin; format: cell-based, human; conditions: hit in PAK4/CFL assay; drugs screened at 10 micromolar
Description: as §1
(§3) Reporter fragments for PCA were generated by oligonucleotide synthesis (Blue Heron Biotechnology, Bothell, Wash.), starting with the sequence of yellow fluorescent protein (YFP). First, oligonucleotides coding for polypeptide fragments YFP[1]and YFP[2] […] Next, PCR mutagenesis was used to generate the mutant fragments IFP[1] and IFP[2]. The IFP[1] fragment corresponds to YFP[1]-(F46L, F64L, M153T) and the IFP[2] fragment corresponds to YFP[2]-(V163A, S175G). […] The YFP[1], YFP[2], IFP[1] and IFP[2] fragments were amplified by PCR to incorporate restriction sites and a linker sequence, described below, in configurations that would allow fusion of a gene of interest to either the 5′- or 3′-end of each reporter fragment. The reporter-linker fragment cassettes were subcloned into a mammalian expression vector (pcDNA3.1Z, Invitrogen) that had been modified to incorporate the replication origin (oriP) of the Epstein Barr virus (EBV). […] Additionally, these vectors still retain the SV40 origin, allowing for episomal expression in cell lines expressing the SV40 large T antigen (e.g. HEK293T, Jurkat or COS).
(§4) PCA fusion constructs were prepared for a proteins known to participate in cellular pathways that have been described in the scientific literature as being linked to cancer. The selection of protein-protein complexes used, and the rationale for their use, is provided in Table 1 and the gene identifiers for the cDNAs used in assay construction are provided in Table 2. The full coding sequence for each gene of interest was amplified by PCR from a sequence-verified full-length cDNA. Resulting PCR products were column purified (Centricon), digested with appropriate restriction enzymes to allow directional cloning, and fused in-frame to either the 5′ or 3′-end of YFP[1], YFP[2], IFP[1] or IFP[2] through a linker encoding a flexible 10 amino acid peptide (Gly.Gly.Gly.Gly.Ser)2. […] Recombinants in the host strains DH5-alpha (Invitrogen, Carlsbad, Calif.) or XL1 Blue MR (Stratagene, La Jolla, Calif.) were screened by colony PCR, and clones containing inserts of the correct size were subjected to end sequencing to confirm the presence of the gene of interest and in-frame fusion to the appropriate reporter fragment. A subset of fusion constructs were selected for full-insert sequencing by primer walking. DNAs were isolated using Qiagen MaxiPrep kits (Qiagen, Chatsworth, Calif.). PCR was used to assess the integrity of each fusion construct, by combining the appropriate gene-specific primer with a reporter-specific primer to confirm that the correct gene-fusion was present and of the correct size with no internal deletions.
(§5) HEK293 cells were maintained in MEM alpha medium (Invitrogen) supplemented with 10% FBS (Gemini Bio-Products), 1% penicillin, and 1% streptomycin, and grown in a 37° C. incubator equilibrated to 5% CO2. […] Up to 100 ng of the complementary YFP or IFP-fragment fusion vectors were co-transfected using Fugene 6 (Roche) according to the manufacturer's protocol.

human tumor cell lines = assay: MTT proliferation assay and phase contrast images, cell line not given (FIGS. 5-10); format: cell-based; conditions: treated cells vs. DMSO control, cell line not named
Experimental: (§6) We used these methods to mine the known pharmacopeia for drugs with previously-unsuspected activity against cancer-related pathways. […] Hits from our cell-based screens were tested for antiproliferative activity in up to 5 different human tumor cell lines, as follows. First, drugs with significant activity in the cellular screen(s) were tested for their ability to block proliferation of a human tumor cell line (PC-3) at an initial concentration of 10 micromolar. For drugs with antiproliferative activity in PC-3 cells, dose-response curves to determine the IC50 for antiproliferative activity and additional tumor cell lines were tested to determine the breadth of activity. Methods for assessing the antiproliferative activity of the cell-based drug ‘hits’ are described below.
Cells were maintained in various media as follows: A549, LoVo and PC-3 (Ham's F12K medium with 2 mM L-glutamine and 1.5 g/L sodium bicarbonate), MIA PaCa-2 (Dulbecco's modified Eagle's medium with 4 mM L-glutamine and 4.5 g/L glucose), U87-MG (MEM+Earle's BSS). Medium for each cell line was supplemented with 10% FBS and […] Penecillin/Streptomycin. All cells were grown in incubators set at 37° C., 5% CO2. Thiazolyl Blue Tetrazolium Bromide (MTT) based proliferation assays were performed to assess the anti-proliferative activities of the compounds on these cells. Cells were seeded in 96 well plates at a density of 750 cells/well 24 hours prior to compound treatment. The cells were incubated with varying concentrations of compounds for 120 hours. Compound concentrations range from 0.03 to 100 microM (half log increments) except for alpha-Tomatine (0.001-100 microM, half log increments), Neriifolin (0.0002-100 microM) and Peruvoside (0.01-100 microM). Drug treatment was performed in 5 replicate wells. Background absorbance was established by wells containing medium but no cells. Vehicle (DMSO) only was used as control. MTT (Sigma-Aldrich, St. Louis, Mo.) was added to each well at a final concentration of 0.5 mg/ml. Following a 2 hour incubation at 37° C., medium in the wells was replaced with 0.15 ml DMSO. The plates were agitated for 15 min using a microtiter plate shaker. […] Mean absorbance values were calculated from 5 replicate wells of each drug treatment following subtraction of background absorbance from blank samples and plotted as a percentage of control.

[1] = test system: glioblastoma (U-87 MG) cells; assay: MTT proliferation assay, glioblastoma; format: cell-based; conditions: Homo sapiens, Tumor Cell Glioblastoma (U-87 MG), 120 hours, read-out: Anti-proliferative IC-50
Experimental: (§7) Cells were maintained in various media as follows: A549, LoVo and PC-3 (Ham's F12K medium with 2 mM L-glutamine and 1.5 g/L sodium bicarbonate), MIA PaCa-2 (Dulbecco's modified Eagle's medium with 4 mM L-glutamine and 4.5 g/L glucose), U87-MG (MEM+Earle's BSS). Medium for each cell line was supplemented with 10% FBS and […] Penecillin/Streptomycin. All cells were grown in incubators set at 37° C., 5% CO2. Thiazolyl Blue Tetrazolium Bromide (MTT) based proliferation assays were performed to assess the anti-proliferative activities of the compounds on these cells. Cells were seeded in 96 well plates at a density of 750 cells/well 24 hours prior to compound treatment. The cells were incubated with varying concentrations of compounds for 120 hours. […] Drug treatment was performed in 5 replicate wells. Background absorbance was established by wells containing medium but no cells. Vehicle (DMSO) only was used as control. MTT (Sigma-Aldrich, St. Louis, Mo.) was added to each well at a final concentration of 0.5 mg/ml. Following a 2 hour incubation at 37° C., medium in the wells was replaced with 0.15 ml DMSO. The plates were agitated for 15 min using a microtiter plate shaker.

[2] = test system: colon adenocarcinoma (LoVo) cells; assay: MTT proliferation assay, colon; format: cell-based, Human; conditions: Tumor Cell Colon (LoVo), 120 hours, read-out: Anti-proliferative IC-50
Experimental: as §7

[3] = test system: pancreatic carcinoma (MIA PaCa-2) cells; assay: MTT proliferation assay, pancreatic; format: cell-based, Human; conditions: Tumor Cell Pancreatic (MIA PaCa-2), 120 hours, read-out: Anti-proliferative IC-50
Experimental: as §7

[4] = test system: prostate adenocarcinoma (PC-3) cells; assay: MTT proliferation assay, prostate; format: cell-based, Human; conditions: Tumor Cell Prostate (PC-3), MTT, 120 hours, read-out: Anti-proliferative IC-50
Experimental: as §6, §7

[5] = test system: non-small cell lung carcinoma (A549) cells; assay: MTT proliferation assay, NSCLC; format: cell-based, Human; conditions: Tumor Cell NSCLC (A549), 120 hours, read-out: Anti-proliferative IC-50
Experimental: as §7

CDC42:PAK4 complexes = assay: Protein-fragment complementation assay CDC42:PAK4; format: cell-based, human; conditions: hit in CDC42/PAK4 assay; drugs screened at 10 micromolar
Description: as §1, §3, §4, §5

Wee1:Cdc2 = assay: Protein-fragment complementation assay Wee1:Cdc2; format: cell-based, human; conditions: hit in Wee1/Cdc2 assay; drugs screened at 10 micromolar
Description: as §1, §2

EGFR:Grb2 = assay: Cell-based assay EGFR:Grb2; design: species or system human; conditions: hit in EGFR/Grb2 assay; drugs screened at 10 micromolar
Description: as §1, §2

CDC25C:Cdc2 = assay: Protein-fragment complementation assay CDC25C:Cdc2; format: cell-based, human; conditions: hit in CDC2/CDC25C assay; drugs screened at 10 micromolar
Description: as §1, §2

HSP90:Eef2k = assay: Protein-fragment complementation assay Hsp90:Eef2k; format: cell-based, human; conditions: hit in HSP90/Eef2k assay; drugs screened at 10 micromolar
Description: as §1
as §3, with “COS). […]” for “COS).”

MAX:MYC = assay: Protein-fragment complementation assay MAX:MYC; format: cell-based, human; conditions: hit in MYC/MAX assay; drugs screened at 10 micromolar
Description: as §1, §2

BAD:BID = assay: Protein-fragment complementation assay BAD:BID; format: cell-based, human; conditions: hit in BAD/BID assay; drugs screened at 10 micromolar
Description: as §1, §2

Chk1:CDC25C = assay: Protein-fragment complementation assay Chk1:CDC25C; format: cell-based, human; conditions: hit in CDC25C/Chk1 assay (with or without CPT not stated); drugs screened at 10 micromolar
Description: as §1, §2

Compound | Assay activity (PAK4:Cofilin) | IC50 [1] [nM] | IC50 ([2]; Homo sapiens) [nM] | IC50 ([3]; Homo sapiens) [nM] | IC50 ([4]; Homo sapiens) [nM] | IC50 ([5]; Homo sapiens) [nM] | Assay activity (CDC42:PAK4 complexes) | also measured
CC(C)c1c(C(=O)Nc2ccccc2)c(-c2ccccc2)c(-c2ccc(F)cc2)n1CC[C@@H](O)C[C@@H](O)CC(=O)O [Atorvastatin] | CFL1/PAK4 | 4600 | – | – | – | – | – | Assay activity (Cofilin:LIMK2): CFL1/LIMK2,; cell count (phase contrast images) (human tumor cell lines): decreased the cell count
O=C(CCCN1CC=C(n2c(=O)[nH]c3ccccc32)CC1)c1ccc(F)cc1 [Droperidol] | PAK4/CFL | 24600 | 25800 | 8800 | 7680 | 24300 | – | –
Fc1ccc(C(c2ccc(F)cc2)N2CCN(C/C=C/c3ccccc3)CC2)cc1 [Flunarizine] | PAK4/CFL, | – | – | – | – | – | CDC42/PAK4 | –
CO[C@H]1[C@H](O)[C@H](O[C@H]2CC[C@@]3(C)[C@H](CC[C@@H]4[C@@H]3CC[C@]3(C)[C@@H](C5=CC(=O)OC5)CC[C@]43O)C2)O[C@@H](C)[C@@H]1O [Neri$$olin, Neriifolin] | PAK4/CFL, | – | – | – | – | – | CDC42/PAK4 | IC50 [2]: 18 nM; IC50 [3]: 4 nM; IC50 [4]: 11 nM; IC50 [5]: 5 nM
CO[C@H]1[C@H](O)[C@H](O[C@H]2CC[C@@]3(C=O)[C@H](CC[C@@H]4[C@@H]3CC[C@]3(C)[C@@H](C5=CC(=O)OC5)CC[C@]43O)C2)O[C@@H](C)[C@@H]1O [Peruvoside] | – | 2 | 9 | 3 | 5 | 4 | – | Assay activity (Wee1:Cdc2): Wee1/Cdc2
CN[C@H]1CC[C@@H](c2ccc(Cl)c(Cl)c2)c2ccccc21 [Sertraline] | – | – | – | – | – | – | – | Assay activity (EGFR:Grb2): EGFR/Grb2,; Assay activity (CDC25C:Cdc2): CDC2/CDC25C,; Assay activity (HSP90:Eef2k): Eef2K/hsp90,; Assay activity (MAX:MYC): MAX/MYC; Assay activity (BAD:BID): BAD/BID,; cell count (phase contrast images) (human tumor cell lines): reduced the cell count
CCCCCCCCNC(C)C(O)c1ccc(SC(C)C)cc1 (centres unmarked) [Suloctidil] | PAK4/CFL, | 1120 | 1130 | 1930 | 1850 | 2230 | CDC42/PAK4 | –
CC1(C)CCC2=C(O1)c1ccccc1C(=O)C2=O [beta-Lapachone] | – | 860 | 1400 | 377 | 630 | 230 | – | Assay activity (Chk1:CDC25C): CDC25C/Chk1; Assay activity (EGFR:Grb2): EGFR/Grb2,

— patent publication US20060094059A1, “Methods for identifying new drug leads and new therapeutic uses for known drugs” (Odyssey Thera, Inc., priority 2004, published 2006)
